Source: US20030113784A1, “Regulated expression of recombinant DNA” (priority 2001, published 2003)

Tested on: β-galactosidase expression in C2C12 myoblasts cotransfected with Op8iME and Lac-R
Assay: Time course of IPTG induction of β-galactosidase expression (chemiluminescent assay of cell lysates)
Assay type: cell-based
Settings: 5 mM IPTG added sixteen hours post-transfection
Method: The time course of IPTG induction of β-galactosidase expression in one of the muscle enhancer and SV40 intron containing constructs was determined. The kinetics of Op8iME induction in C2C12 myoblasts were plotted over the course of 48 hours. Op8iME and the Lac-R were transiently cotransfected into C2C12 myoblasts. Sixteen hours post-transfection, 5 mM IPTG was added. β-galactosidase expression was monitored in cell lysates by chemiluminescent assay (Promega) at a selection of time-points from 1 h to 48 h. IPTG-dependent induction of β-galactosidase began at 4h and increased over time, with a maximum peak at 24 h (FIG. 11).

For CC(C)S[C@@H]1O[C@H](CO)[C@H](O)[C@H](O)[C@H]1O [IPTG, isopropylthiogalactoside], the “time of maximum peak of IPTG-dependent induction of β-galactosidase” value was 24 h and the “start of IPTG-dependent induction of β-galactosidase” value (time-points 1 h to 48 h) was 4 h.
